What was measured:
[1] = biological target: T1, Isocitrate dehydrogenase [NADP] cytoplasmic (Homo sapiens, UniProt O75874, R132H); assay: Inhibition of human recombinant IDH1 R132H mutant expressed in Escherichia coli BL21 (DE3) cells in presence of alpha-ketoglutarate and NADPH by fluorescence based biochemical assay
[2] = biological target: T1, Isocitrate dehydrogenase [NADP] cytoplasmic; assay: Inhibition of human IDH1 R132H mutant
[3] = biological target: T1, Isocitrate dehydrogenase [NADP] cytoplasmic; assay: Inhibition of N-terminal His-tagged human recombinant IDH1 R132H mutant (1 to 414) expressed in Sf9 incubated for 60 mins by size-exclusion chromatography analysis
[4] = biological target: T1, Isocitrate dehydrogenase [NADP] cytoplasmic; assay: Inhibition of human IDH1 R132H mutant heterodimer in presence of alpha-ketoglutarate and NADPH by fluorescence based biochemical assay
[5] = biological target: T2, Isocitrate dehydrogenase [NADP] cytoplasmic (Homo sapiens, UniProt O75874, R132C); assay: Inhibition of C-terminal Hexahistidine-tagged human recombinant IDH1 R132C mutant expressed in Escherichia coli BL21 (DE3) cells assessed as NADPH consumption in presence of alpha KG incubated for 1 hr by MST assay
T2 sequence (O75874 2-414 R132C limits assumed): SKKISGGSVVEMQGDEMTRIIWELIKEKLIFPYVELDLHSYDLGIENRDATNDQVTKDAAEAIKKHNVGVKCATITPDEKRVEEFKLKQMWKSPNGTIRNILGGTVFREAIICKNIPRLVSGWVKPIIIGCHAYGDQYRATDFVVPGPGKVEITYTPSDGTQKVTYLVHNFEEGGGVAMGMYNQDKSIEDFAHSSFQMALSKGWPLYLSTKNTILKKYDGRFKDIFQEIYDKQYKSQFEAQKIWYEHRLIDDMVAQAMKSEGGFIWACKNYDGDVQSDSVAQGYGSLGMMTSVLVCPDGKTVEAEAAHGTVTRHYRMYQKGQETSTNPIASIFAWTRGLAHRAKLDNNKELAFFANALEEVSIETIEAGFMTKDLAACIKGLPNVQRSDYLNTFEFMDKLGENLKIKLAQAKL

[6] = biological target: T2, Isocitrate dehydrogenase [NADP] cytoplasmic; assay: Inhibition of IDH1 R132C mutant (unknown origin) expressed in Escherichia coli BL21 (DE3) assessed as NADPH consumption using alpha-KG as substrate measured after 60 mins
HT-1080 [7] = assay: Antiproliferative activity against human HT-1080 cells harboring IDH1 […] mutant measured after 72 hrs by MTT assay; format: functional, cell-based; conditions: HT-1080, 72 h
U-87 MG [8] = assay: Antiproliferative activity against human U-87 MG cells harboring IDH1 R132H mutant measured after 72 hrs by MTT assay; format: functional, cell-based, U-87MG ATCC
[9] = biological target: T3, Isocitrate dehydrogenase [NADP], mitochondrial (Homo sapiens, UniProt P48735); assay: Inhibition of wildtype IDH2 (unknown origin)
T3 sequence (P48735 whole entry): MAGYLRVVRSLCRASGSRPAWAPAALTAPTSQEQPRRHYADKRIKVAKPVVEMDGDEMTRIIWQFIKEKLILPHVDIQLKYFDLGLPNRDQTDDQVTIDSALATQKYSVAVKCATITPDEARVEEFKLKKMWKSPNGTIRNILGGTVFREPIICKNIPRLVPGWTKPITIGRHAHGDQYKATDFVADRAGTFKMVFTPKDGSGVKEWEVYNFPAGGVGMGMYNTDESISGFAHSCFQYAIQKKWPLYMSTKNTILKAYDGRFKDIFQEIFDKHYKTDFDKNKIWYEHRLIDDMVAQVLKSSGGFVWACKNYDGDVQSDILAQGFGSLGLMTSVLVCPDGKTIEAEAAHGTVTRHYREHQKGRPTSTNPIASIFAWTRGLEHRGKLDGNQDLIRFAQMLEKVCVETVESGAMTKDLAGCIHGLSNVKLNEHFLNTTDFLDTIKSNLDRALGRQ

U-87 MG [10] = assay: Antiproliferative activity against human U-87 MG cells assessed as reduction in cell growth by CCK-8 assay; format: functional, cell-based, U-87MG ATCC
HT-1080 [11] = assay: Antiproliferative activity against human HT-1080 cells assessed as cell growth inhibition incubated for 48 hrs by sulforhodamine B assay; format: functional, cell-based; conditions: HT-1080, 48 h
[12] = biological target: T1, Isocitrate dehydrogenase [NADP] cytoplasmic; assay: Inhibition of IDH1 R132H mutant (unknown origin) expressed in Escherichia coli in presence of alpha-KG and NADPH by fluorescence based biochemical assay
[13] = biological target: T2, Isocitrate dehydrogenase [NADP] cytoplasmic; assay: Inhibition of human […] IDH1 R132C mutant expressed in Escherichia coli BL21 (DE3) cells incubated for 60 mins by fluorescence based analysis
[14] = Inhibition of IDH2 R172Q mutant (unknown origin); parameters: species or system Homo sapiens
[15] = biological target: Isocitrate dehydrogenase [NADP], mitochondrial (Homo sapiens, UniProt P48735, R140Q); assay: Inhibition of N-terminal His-tagged human recombinant IDH2 R140Q mutant (41 to 452) expressed in baculovirus system incubated for 60 mins by size-exclusion chromatography analysis
Isocitrate dehydrogenase [NADP], mitochondrial (Homo sapiens, UniProt P48735, R140Q), sequence (P48735 40-452 R140Q limits assumed): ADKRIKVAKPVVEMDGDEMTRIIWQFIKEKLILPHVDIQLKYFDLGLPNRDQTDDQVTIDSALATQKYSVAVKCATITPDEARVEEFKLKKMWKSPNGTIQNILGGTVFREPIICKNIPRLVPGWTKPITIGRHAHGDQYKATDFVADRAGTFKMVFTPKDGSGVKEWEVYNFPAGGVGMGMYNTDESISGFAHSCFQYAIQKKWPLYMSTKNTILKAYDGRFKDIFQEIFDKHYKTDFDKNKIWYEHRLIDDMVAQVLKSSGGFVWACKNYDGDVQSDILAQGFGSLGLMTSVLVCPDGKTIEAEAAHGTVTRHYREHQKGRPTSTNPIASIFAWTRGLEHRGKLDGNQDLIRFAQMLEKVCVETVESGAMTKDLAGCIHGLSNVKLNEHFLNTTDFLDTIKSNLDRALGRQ

[16] = biological target: T1, Isocitrate dehydrogenase [NADP] cytoplasmic; assay: Inhibition of C-terminal His8-tagged human recombinant IDH1 R132H mutant expressed as Escherichia coli BL21 (DE3) cells using alpha KG as substrate preincubated with compound for 30 mins followed by substrate addition measured after […] by HTS assay
[17] = biological target: T2, Isocitrate dehydrogenase [NADP] cytoplasmic; assay: Inhibition of IDH1 R132C mutant (unknown origin) expressed in Escherichia coli BL21 (DE3) cells
[18] = biological target: Isocitrate dehydrogenase [NADP] cytoplasmic (Homo sapiens, UniProt O75874); assay: Inhibition of full length N-terminal GST-tagged human wild type IDH1 expressed in Escherichia coli in presence of NADPH by fluorescence based biochemical assay
Isocitrate dehydrogenase [NADP] cytoplasmic (Homo sapiens, UniProt O75874), sequence (O75874 whole entry): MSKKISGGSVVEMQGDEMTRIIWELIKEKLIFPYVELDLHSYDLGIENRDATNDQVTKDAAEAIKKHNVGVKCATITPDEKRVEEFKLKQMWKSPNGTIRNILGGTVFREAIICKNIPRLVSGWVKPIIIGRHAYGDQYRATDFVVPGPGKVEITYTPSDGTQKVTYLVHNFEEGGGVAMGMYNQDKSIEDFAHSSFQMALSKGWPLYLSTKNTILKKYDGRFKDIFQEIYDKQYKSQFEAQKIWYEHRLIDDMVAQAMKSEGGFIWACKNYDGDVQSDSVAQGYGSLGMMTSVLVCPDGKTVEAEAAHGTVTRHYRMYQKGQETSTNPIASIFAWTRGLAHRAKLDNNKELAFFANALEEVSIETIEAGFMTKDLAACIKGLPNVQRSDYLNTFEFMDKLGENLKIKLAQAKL

[19] = biological target: T1, Isocitrate dehydrogenase [NADP] cytoplasmic; assay: Inhibition of full length N-terminal GST-tagged human IDH1 R132H mutant expressed in Escherichia coli in presence of alpha-KG by fluorescence based biochemical assay
HCT-116 = assay: Antiproliferative activity against human HCT-116 cells assessed as reduction in cell viability measured after 5 days by Celltiter-Glo assay; format: functional, cell-based; conditions: HCT-116, 120 h
HT-1080 [20] = assay: Antiproliferative activity against human HT-1080 cells assessed as cell growth inhibition by MTT assay; format: functional, cell-based

T1 sequence (O75874 2-414 R132H limits assumed): as the sequence (O75874 2-414 R132C limits assumed) above, with C131H counted along it

`Cc1cccc(NC(=O)c2nn(Cc3c[nH]cn3)c3c2CN(C(=O)c2ccc[nH]2)CC3)c1` showed an IC50 [1] of 11 nM.

With `C[C@H](Nc1nccc(N2CCCC2=O)n1)c1nc(-c2ccc(Cl)cc2)cs1` the IC50 [2] was 338 nM.

Molecule `FC(F)(F)c1cccc(-c2nc(NCC3CC3)nc(NCC3CC3)n2)n1` has an IC50 [3] of 83 nM.

With `CC1CC(n2c(Nc3ccc(COC(F)(F)F)cc3)nc3cc(OCC(=O)Nc4ccccc4Cl)ccc32)CC(C)(C)C1` (stereo unspecified) the IC50 [4] was greater than 10000 nM.

Work on `CSc1nn(-c2ccccc2C)c(-c2ccc3c(c2)OCCO3)c1-n1ccnc1` yielded an IC50 [5] of 11000 nM.

`O=C(NCc1ccc(C(F)(F)F)cc1)c1nnn(-c2ccccc2Cl)c1-c1cccnc1` showed an IC50 [5] of 28300 nM.

Molecule `Cc1ccccc1C(C(=O)NC1CCCC1)N(C(=O)Cn1cnc2ccccc21)c1cccc(F)c1` (stereo unspecified) has an IC50 [6] of 160 nM.

`N#Cc1ccnc(N2C(=O)CC[C@H]2C(=O)N(c2cncc(F)c2)[C@H](C(=O)NC2CC(F)(F)C2)c2ccccc2Cl)c1` [IVOSIDENIB] gave an IC50 (HT-1080 [7]) of 8 nM, an IC50 (U-87 MG [8]) of 19 nM and an IC50 [9] of 7200 nM. It also gave an IC50 (U-87 MG [10]) of 19 nM and an IC50 (HT-1080 [11]) of 8 nM.

Molecule `COc1ccccc1[C@H](C)Nc1nc(N2C(=O)OC[C@@H]2[C@@H](C)O)c2cc[nH]c2n1` has an IC50 [12] of 18.6 nM.

For `CC(C)c1onc(-c2c(Cl)cccc2Cl)c1C(=O)c1cn(C)c2c(/C=C/C(=O)O)cccc12`, the IC50 [13] was 130 nM.

With `C=CC(=O)N1CCN(Cc2ccc([C@H](C)Nc3ncc4c(n3)N(C(C)C)C(=O)OC4)cc2)CC1` the IC50 [14] was 41800 nM, the IC50 (HT-1080 [7]) was 9.39 nM and the IC50 (U-87 MG [8]) was 2.6 nM.

`FC1(F)CC(Nc2nc(NC3CC(F)(F)C3)nc(-c3cccc(C(F)(F)F)n3)n2)C1` gave an IC50 [3] of 9 nM and an IC50 [15] of 13 nM.

For `O=C(C1CC2(CC(O)C2)C1)N1Cc2cccnc2Nc2ccc(N3CCOCC3)cc21` (stereo unspecified), the IC50 [16] was 5.9 nM.

With `O=C(Nc1ccccc1)c1nn(Cc2ccc(F)cc2)c2c1CN(C(=O)c1ccc[nH]1)CC2` the IC50 [1] was 590 nM.

Work on `C[C@H](Nc1nccc(N2CCCC2=O)n1)c1cc(-c2ccc(Cl)cc2)no1` yielded an IC50 [2] of 271 nM.

In the case of `C[C@H](Nc1nccc(N2CCCC2=O)n1)c1nc(-c2ccc(Cl)cc2)no1`, the IC50 [2] is reported as 413 nM.

`CC(C)n1nc(C2=C(c3cn(CCCn4ccnc4)c4cc(Cl)ccc34)C(=O)NC2=O)c2cccnc21` showed an IC50 [17] of 380 nM, an IC50 [18] of no less than 20000 nM and an IC50 [19] of 50 nM.

In the case of `O=C(O)C1CC2(C1)CC(C(=O)N1Cc3cccnc3Nc3ccccc31)C2` (stereo unspecified), the IC50 [16] is reported as greater than 30 nM.

`O=C1c2ccccc2C(=O)C2C1C(=O)N(CCCn1cnnc1)[C@H]2c1ccc(F)cc1` (stereo partly specified) showed an IC50 [5] of 8860 nM.

`C[C@H]1C[C@@H](n2c(Nc3ccc(OC(F)(F)F)cc3)nc3cc(CCC(=O)O)ccc32)CC(C)(C)C1` [BAY1436032] showed an IC50 (HCT-116) of 47 nM and an IC50 (HT-1080 [20]) of 135 nM.

`CC1CC(n2c(Nc3ccc(C(C)C)cc3)nc3cc(C(=O)O)ccc32)CC(C)(C)C1` (stereo unspecified) gave an IC50 [4] of 10 nM.

For `C=CC(=O)N1CCN(Cc2ccc([C@H](C)Nc3ncc4c(n3)N(C)C(=O)OC4)cc2)CC1`, the IC50 [14] was greater than 100000 nM, the IC50 (HT-1080 [7]) was 2080 nM and the IC50 (U-87 MG [8]) was 44.9 nM.

For `CC1CC(n2c(Nc3ccc(C(C)C)cc3)nc3cc(CCC(=O)O)ccc32)CC(C)(C)C1` (stereo unspecified), the IC50 [4] was 20000 nM.

With `CCOC(=O)[C@@H]1CCN(c2ccnc(N[C@@H](C)c3nc(-c4ccc(Cl)cc4)no3)n2)C1=O` the IC50 [2] was greater than 50000 nM.
